These results are taken from the OligoGym collection.

HELM strings list units from the 5' end as sugar, base in round brackets, then linkage (d deoxyribose, r ribose, m 2'-O-methyl, p phosphodiester). Strings are as the collection lists them; they lack the last nucleoside at the 3' end of the tested compound. [moe] = 2'-O-(2-methoxyethyl) (MOE); [sp] = phosphorothioate linkage; [m5C] = 5-methylcytosine

For this data set, the target named is UBE3A-ATS. The data set can be described thus: mouse, dose not given. To be noted: ASO.

Consider “RNA1{[moe](G)[sp].[moe]([m5C])p.[moe](T)p.[moe](A)p.[moe](T)p.d(A)[sp].d([m5C])[sp].d([m5C])[sp].d([m5C])[sp].d([m5C])[sp].d(T)[sp].d(A)[sp].d(G)[sp].d(G)[sp].d(A)[sp].[moe](T)p.[moe]([m5C])p.[moe](A)[sp].[moe](G)}$$$$ (last 3' nucleoside missing)”, for which the 3 h FOB score came out at 3.8 score 0-7.

Substance “RNA1{[moe](T)[sp].[moe]([m5C])p.[moe](A)p.[moe](T)p.[moe](T)p.d(A)[sp].d(T)[sp].d(T)[sp].d([m5C])[sp].d(T)[sp].d([m5C])[sp].d(T)[sp].d(A)[sp].d(G)[sp].d(T)[sp].[moe](G)p.[moe]([m5C])p.[moe]([m5C])[sp].[moe](T)}$$$$ (last 3' nucleoside missing)” displayed a 3 h FOB score of 1 score 0-7.

“RNA1{[moe](T)[sp].[moe](G)p.[moe]([m5C])p.[moe](T)p.[moe](G)p.d(A)[sp].d(T)[sp].d([m5C])[sp].d(A)[sp].d([m5C])[sp].d(A)[sp].d(T)[sp].d(T)[sp].d(A)[sp].d([m5C])[sp].[moe]([m5C])p.[moe]([m5C])p.[moe](A)[sp].[moe](T)}$$$$ (last 3' nucleoside missing)” displayed a 3 h FOB score of 0 score 0-7.

With “RNA1{[moe](G)[sp].[moe]([m5C])p.[moe](A)p.[moe](T)p.[moe](A)p.[moe]([m5C])[sp].d([m5C])[sp].d([m5C])[sp].d(A)[sp].d(G)[sp].d(G)[sp].d(G)[sp].d(T)[sp].d(A)[sp].[moe](G)p.[moe](G)[sp].[moe](A)}$$$$ (last 3' nucleoside missing)”, the 3 h FOB score was found to be 1 score 0-7.

“RNA1{[moe](G)[sp].[moe](G)p.[moe](T)p.[moe](T)p.[moe](T)p.d(A)[sp].d(G)[sp].d(G)[sp].d(T)[sp].d([m5C])[sp].d(A)[sp].d(A)[sp].d([m5C])[sp].d([m5C])[sp].d(A)[sp].[moe](A)p.[moe](T)p.[moe](T)[sp].[moe](T)}$$$$ (last 3' nucleoside missing)”: the 3 h FOB score came out at 6 score 0-7.

“RNA1{[moe]([m5C])[sp].[moe](G)p.[moe]([m5C])p.[moe](A)p.[moe](A)p.[moe](T)[sp].d(G)[sp].d(T)[sp].d(A)[sp].d(T)[sp].d([m5C])[sp].d(A)[sp].d(G)[sp].d(G)[sp].[moe]([m5C])p.[moe](A)[sp].[moe](A)}$$$$ (last 3' nucleoside missing)” had a 3 h FOB score of 3 score 0-7.

Regarding “RNA1{[moe](T)[sp].[moe]([m5C])p.[moe](A)p.[moe]([m5C])[sp].d([m5C])[sp].d(A)[sp].d(T)[sp].d(T)[sp].d(T)[sp].d(T)[sp].d(G)[sp].d(A)[sp].[moe]([m5C])p.[moe]([m5C])p.[moe](T)p.[moe](T)[sp].[moe]([m5C])}$$$$ (last 3' nucleoside missing)”, the 3 h FOB score was determined as 0.3 score 0-7.

Turning to “RNA1{[moe](G)[sp].[moe](A)p.[moe](T)p.[moe](T)p.[moe](T)p.d([m5C])[sp].d([m5C])[sp].d(T)[sp].d(T)[sp].d(A)[sp].d([m5C])[sp].d(T)[sp].d(G)[sp].d(A)[sp].d(G)[sp].[moe](T)p.[moe](G)p.[moe](A)[sp].[moe](G)}$$$$ (last 3' nucleoside missing)”, the 3 h FOB score is 1 score 0-7.

Consider “RNA1{[moe](T)[sp].[moe](T)p.[moe]([m5C])p.[moe](T)p.[moe]([m5C])p.d(A)[sp].d([m5C])[sp].d([m5C])[sp].d(T)[sp].d(A)[sp].d(G)[sp].d(G)[sp].d([m5C])[sp].d(T)[sp].d(G)[sp].[moe](G)p.[moe](G)p.[moe]([m5C])[sp].[moe]([m5C])}$$$$ (last 3' nucleoside missing)”, for which the 3 h FOB score is 2.8 score 0-7.

In the case of “RNA1{[moe](G)[sp].[moe](G)p.[moe](T)p.[moe](A)p.[moe](A)p.d(G)[sp].d(G)[sp].d([m5C])[sp].d(A)[sp].d(G)[sp].d([m5C])[sp].d(T)[sp].d([m5C])[sp].d([m5C])[sp].d(T)[sp].[moe](G)p.[moe](A)p.[moe]([m5C])[sp].[moe](A)}$$$$ (last 3' nucleoside missing)”, the 3 h FOB score came out at 1.3 score 0-7.

Substance “RNA1{[moe]([m5C])[sp].[moe](T)p.[moe](G)p.[moe]([m5C])p.d(T)[sp].d([m5C])[sp].d(A)[sp].d(G)[sp].d(T)[sp].d(T)[sp].d(A)[sp].d(G)[sp].d(G)[sp].d(T)[sp].[moe](T)p.[moe](A)p.[moe](G)p.[moe](T)[sp].[moe](G)}$$$$ (last 3' nucleoside missing)” gave a 3 h FOB score of 4 score 0-7.

Regarding “RNA1{[moe](G)[sp].[moe](G)p.[moe](G)p.[moe](T)p.[moe]([m5C])p.d(G)[sp].d(G)[sp].d(A)[sp].d(T)[sp].d(A)[sp].d(T)[sp].d(A)[sp].d(G)[sp].d([m5C])[sp].d(T)[sp].[moe](T)p.[moe](T)p.[moe](T)[sp].[moe](A)}$$$$ (last 3' nucleoside missing)”, the 3 h FOB score is 5 score 0-7.

Regarding “RNA1{[moe](T)[sp].[moe](T)p.[moe](T)p.[moe](A)p.[moe](G)p.d(G)[sp].d(T)[sp].d([m5C])[sp].d(A)[sp].d(A)[sp].d([m5C])[sp].d([m5C])[sp].d(A)[sp].d(A)[sp].d(T)[sp].[moe](T)p.[moe](T)p.[moe](G)[sp].[moe]([m5C])}$$$$ (last 3' nucleoside missing)”, the 3 h FOB score was 0 score 0-7.

In turn, “RNA1{[moe]([m5C])[sp].[moe](G)p.[moe]([m5C])p.[moe](A)p.[moe](A)p.d(T)[sp].d(G)[sp].d(T)[sp].d(A)[sp].d(T)[sp].d([m5C])[sp].d(A)[sp].d(G)[sp].d(G)[sp].d([m5C])[sp].[moe](A)p.[moe](A)p.[moe]([m5C])[sp].[moe](A)}$$$$ (last 3' nucleoside missing)” gave a 3 h FOB score of 4 score 0-7.

Substance “RNA1{[moe]([m5C])[sp].[moe](T)p.[moe](T)p.[moe]([m5C])p.[moe](A)p.[moe]([m5C])p.d([m5C])[sp].d(A)[sp].d(T)[sp].d(T)[sp].d(T)[sp].d(T)[sp].d(G)[sp].d(A)[sp].d([m5C])[sp].d([m5C])[sp].[moe](T)p.[moe](T)[sp].[moe]([m5C])}$$$$ (last 3' nucleoside missing)” yielded a 3 h FOB score of 1 score 0-7.

As to “RNA1{[moe]([m5C])[sp].[moe]([m5C])p.[moe](A)p.[moe](G)p.[moe](T)p.d(T)[sp].d(T)[sp].d(T)[sp].d([m5C])[sp].d(G)[sp].d([m5C])[sp].d([m5C])[sp].d([m5C])[sp].d(G)[sp].d(T)[sp].[moe](T)p.[moe](A)p.[moe]([m5C])[sp].[moe]([m5C])}$$$$ (last 3' nucleoside missing)”, the 3 h FOB score stood at 4.5 score 0-7.

“RNA1{[moe](T)[sp].[moe]([m5C])p.[moe](A)p.[moe](T)p.[moe]([m5C])p.[moe](T)p.d([m5C])[sp].d(G)[sp].d(G)[sp].d(G)[sp].d(T)[sp].d(A)[sp].d(T)[sp].d(A)[sp].d(T)[sp].d(A)[sp].[moe](A)p.[moe](A)[sp].[moe](T)}$$$$ (last 3' nucleoside missing)” registered a 3 h FOB score of 2 score 0-7.

“RNA1{[moe](T)[sp].[moe](A)p.[moe](G)p.[moe](G)p.[moe](T)p.[moe]([m5C])p.d(A)[sp].d(A)[sp].d([m5C])[sp].d([m5C])[sp].d(A)[sp].d(A)[sp].d(T)[sp].d(T)[sp].d(T)[sp].d(G)[sp].[moe]([m5C])p.[moe](T)[sp].[moe](A)}$$$$ (last 3' nucleoside missing)” had a 3 h FOB score of 5 score 0-7.
